# Experimental data as given in US20230174936A1, “IMMUNOSUPPRESSANT-RESISTANT T-CELLS FOR ADOPTIVE IMMUNOTHERAPY” (CHARITÉ - UNIVERSITÄTSMEDIZIN BERLIN, priority 2020, published 2023).
# “Also recorded” adds a separate entry of the source.
# Assays:
# [1] = system: CMV-specific T-cell products; assay: CMV-specific stimulation at day 21, intracellular cytokines by flow cytometry; type: cell-based, human
# Procedure: FIG. 2: Functional profiles of CMV-specific T-cell products with disrupted FKBP12 CMV-specific stimulation of T-cell products at day 21 of culture using antigen-presenting cells (autologous lymphoblastic B-cell lines) pulsed with overlapping peptide pools of CMVIE-1 and CMVpp65 (6 h stimulation). Cytokines were captured in T-cells by addition of Brefeldin A after 1 h of stimulation and cells were stained using a fixation/permeabilization kit and fluorescently 1a-belled antibodies. Data were acquired by multicolor flow cytometry. Immunosuppressants were added where indicated at the following clinically relevant doses: Tac = 6 ng/ml Tacrolimus; CsA ═ 120 ng/ml Cyclosporine A; Tac/Pred/MPA = 6 ng/ml Tacrolimus + 0.57 µg/ml Prednisolone + 2.7 µg/ml Mycophenolic acid. Stars symbolize p-values < 0.05, which were determined by tests for normal distribution (Shapiro-Wilk and Kolmogorov-Smirnov tests), followed by one-way ANOVA (normally distributed data sets) or Friedman test (not normally distributed data sets) and paired t-tests (normally distributed data sets) or Wilcoxon matched pairs signed rank tests (not normally distributed data sets) as posttests. […]
# Regulatory T cells = assay: Treg expansion in medium with or without calcineurin inhibitors; type: cell-based, human; conditions: Tac 6 ng/ml
# Procedure: Edited and control Treg cells were subsequently expanded in medium with or without different calcineurin inhibitors and subsequently analysed for cell expansion (A) and with flow cytometry (B+C). […] CTLA4 is known to suppress T cells and modulate pro-inflammatory responses by dendritic cells. […] Light bars are untouched expanded Treg, dark bars are FKBP12^k.o.expanded Treg. Tac was used at 6 ng/ml, CsA was used at 125 ng/ml, which corresponds to pharmacological doses that may, e.g., found in patient serum.
# FKBP12^KO and control Treg cells were subsequently expanded in medium with or without different calcineurin inhibitors and subsequently analysed for cell expansion (FIG. 11 A) and with flow cytometry (FIG. 11 B+C). […] CTLA4 is known to suppress T cells and modulate pro-inflammatory responses by dendritic cells.
# K562 cells = assay: NK92 cytotoxicity in co-culture with K562; type: cell-based, human; conditions: 1:1 with K562, n = 1
# Procedure: FIG. 19: Killing efficiency pf FKBP12^KO NK cells NK92 were electroporated with Cas9 protein and sgRNA#1(Table 1). After 5 days they were incubated with K562 cells at a ratio of 1:1. Killing capacity was calculated by the reduction in frequency of K562 cells. n = 1.
# We performed a proof-of-principle experiment to confirm feasibility of FKBP12^KO in the NK cell line NK92. Four days prior to the experiment, FKBP12^KO NK92 cells were electroporated with Cas9 + FKBP12 sgRNA#1 (Table 1). NK cell cytotoxicity was assessed by co-culture with the MHC class I deficient erythroleukemia cell line K562. To this end, NK92 and CFSE-labeled K562 cells were mixed at a 1:1 ratio. After a total of 8 hours, the reaction was stopped by washing with cold 1X PBS. The cells were stained with Life Dead UV before fixation and permeabilization (IC Fix/Perm Kit, Thermo Fisher). Fixation was performed for 30 minutes at RT. The stained cells were analyzed with a Cytoflex LX. Analysis was performed with FlowJo v10.
# [2] = system: target cells loaded with SARS-CoV-2 peptides
Molecule,proportion of IFNγ-producers ([1]; effect of Tacrolimus on T-cells of CMV-TCPs),proliferation of untouched Tregs (Regulatory T cells),killing efficiency in non-edited NK92 cells (K562 cells),T-cell-mediated cytotoxic killing of target cells [2],"cytokine producers / T-cell function in the presence of Tacrolimus ([1]; 6 ng/ml Tacrolimus, TCPs edited with the named sgRNA)"
C=CC[C@@H]1/C=C(\C)C[C@H](C)C[C@H](OC)[C@H]2O[C@@](O)(C(=O)C(=O)N3CCCC[C@H]3C(=O)O[C@H](/C(C)=C/[C@@H]3CC[C@@H](O)[C@H](OC)C3)[C@H](C)[C@@H](O)CC1=O)[C@H](C)C[C@@H]2OC [Tacrolimus],significantly reduced,reduced the proliferation,decreased killing efficiency,not affected,
"sgRNA#2: FKBP12-specific guide RNA targeting SEQ ID NO: 1; full sequence SEQ ID NO: 17 (nucleic acid, synthetic chemically modified sgRNA, pattern not given here) guide: GGGCGCACCUUCCCCAAGCGGUUUUAGAGCUAGAAAUAGCAAGUUAAAAUAAGGCUAGUCCGUUAUCAACUUGAAAAAGUGGCACCGAGUCGGUGC",,,,,superior function in maintaining T-cell function; also recorded: retained physiological levels of cytokine producers
